The subject of series [1] is MCF-7^ADR cells. Nature of the series: [^3 H] VBL accumulation in MCF-7^ADR cells. Format: cell-based, human. How it is done: 5:231-243 (1985)) and provide sufficient free TAM levels in the ER-positive cells.
(§1) While many PGP-reversing agents have been studied, the majority are maximally active in vitro at concentrations≥10 μM. It is widely acknowledged that, for many of these compounds, it is impossible to achieve this level in the sera of patients without inducing severe dose limiting toxicities (Miller, T. P. et al., J. Clin. Oncol. 9:17-24 (1991); Murren & Hait, Oncology Res. 1:1-6 (1992); Dalton, W. D. et al., J. Clin. Oncol. 7:415-424 (1989); Miller, R. L. et al., J. Clin Oncol. 6:880-888 (1988)). Our compounds were evaluated in vitro using concentrations likely to be pharmacologically relevant. […] To determine potency relative to verapamil, we compared the equieffective concentrations. […]. Oncol. 9:17-24 (1991); Dalton, W. D. et al., J. Clin. Oncol. 7:415-424 (1989)). Similar serum levels of progestagens are achieved in patients receiving standard dosing, e.g. megesterol acetate (0.7 μM) (Lundgren & Lonning, J. Steroid. Biochem. 36:105-109 (1990)).
(§2) We then determined the relative potency for increasing [^3 H] VBL accumulation in control (parental) and resistant cells (MCF-7^ADR) and/or MDR1 transduced in comparison with progesterone and verapamil. […]. […]

The next series deals with CL 10.3 cells. The series is described as follows: [^3 H] VBL accumulation in MDR1-transduced CL 10.3 cells. The format is cell-based, human. Here is the method: While many PGP-reversing agents have been studied, the majority are maximally active in vitro at concentrations≥10 μM. […] Our compounds were evaluated in vitro using concentrations likely to be pharmacologically relevant. […] To determine potency relative to verapamil, we compared the equieffective concentrations. […] Oncol.
We then determined the relative potency for increasing [^3 H] VBL accumulation in control (parental) and resistant cells (MCF-7^ADR) and/or MDR1 transduced in comparison with progesterone and verapamil.

For series [2], the system named is MCF-7^ADR cells and cells transfected with the MDR gene (CL 10.3). Format: cell-based, human. How it is done:
as §1, §2

In a further series the test system is sensitive parental cells. The series is described as follows: Effect in sensitive (parental) control cells: VBL accumulation and resistance reversal. The format is cell-based, human. An excerpt:
We then determined the relative potency for increasing [^3 H] VBL accumulation in control (parental) and resistant cells (MCF-7^ADR) and/or MDR1 transduced in comparison with progesterone and verapamil. […]. […] […].
(§3) The ability of compound 4 to reverse both [^3 H]

In series [3] the test system is MCF-7^ADR cells. How it is done:
(§4) The growth inhibition experiments, i.e., anchorage dependent and independent assays, are designed to allow evaluation of drug interactions by isobologram analysis. Thus, they include a full definition of the dose-response curves relative to the single agents (untreated and up to 8 drug concentrations), all combinations of 5 concentrations of the modulating agent (e.g., C7 analogue) and up to 9 concentrations of the target agent. […] Briefly, cell monolayers are treated with the appropriate drugs, reversing agents and vehicle(s), the monolayers washed 3 times with growth media, gently trypsinized, and suspended in 1.5 ml growth medium containing 0.6% (w/v) agar at 41° C. […] This agar solution is placed over a solid bottom agar layer and incubated for 10 days at 37° C. Dishes are refed with 500 μl of growth medium on days 3 and 6. Colonies of 50 cells or more (~60 μm diameter) are counted using an Omnicron electronic colony counter. Statistical analyses of colony forming ability will be performed using ANOVA.
(§5) Dose-response curves of the cytotoxic drug are obtained in the absence and presence of the chemosensitizer. The curves are corrected by dividing the observed survival values by the fractional survival to the chemosensitizer alone (where present in the combination), and IC50 values obtained by interpolation on the corrected curves. The activity of the chemosensitizer will be quantified as FS=IC50 (-)/IC50 (+), where FS=Fold Sensitization, and IC50 (-) and IC50 (+) are the cytotoxic drug IC50 s respectively in the absence and presence of the chemosensitizer.

The next series has as its system MDA435/LCC6^MDR1 cells. As to conditions: 1 μM compound 4. Here is the method:
as §4, §5

The test system of a further series is PGP-resistant cells. Nature of the series: PGP-mediated resistance reversal (VBL cytotoxicity, continuous exposure). Format: cell-based. As to conditions: preliminary data. An excerpt:
(§6) Information on drug stability in serum also may be indirectly assessed by comparing effects on [^3 H] VBL accumulation with cytotoxicity (reversing) assays using a continuous exposure. For example, Thimmaiah, K. N. et al. (J. Med. Chem. 35:3358-3364 (1992)) reported that some phenoxazine analogues increased [^3 H] VBL accumulation but were ineffective at reversing VBL cytotoxicity. […] VBL accumulation and reversing PGP-mediated resistance.

The format of series [4] is in vitro ADME.
Text: as §6, §3

Setting [5] is: MCF-7^ADR and MDR-transfected cells, up to.

For `CC(=O)C1CCC2C3C(Sc4ccc(NC(=O)NCCc5ccccc5)cc4)CC4=CC(=O)CCC4(C)C3CCC12C` (stereo not shown) [Compound 4], in the series with MCF-7^ADR cells [1], the “concentration equieffective with the ED50 of verapamil for increasing intracellular VBL: fold lower than progesterone” value amounted to 35 fold and the “concentration equieffective with the ED50 of verapamil for increasing intracellular VBL: fold lower than verapamil” value is reported as 5 fold. In addition, in the series with CL 10.3 cells, the “concentration equieffective with the ED50 of verapamil for increasing intracellular VBL: fold lower than progesterone” value is 30 fold and the “concentration equieffective with the ED50 of verapamil for increasing intracellular VBL: fold lower than verapamil” value is on record as 7 fold. The “maximal increase in intercellular VBL relative to verapamil” value in series [2] is given as “equivalent to that achievable with verapamil”. For the same molecule, in series [2] (setting [5]), the “potency relative to progesterone (fold more potent)” value was “up to 35 fold” and the “potency relative to verapamil, equal-molar basis (ratio of ED50 s)” value is given as “up to 6 fold”. In addition, the “potency relative to verapamil in vitro (VBL accumulation and cytotoxicity)” value in series [2] (human) was at least 6 fold. For the same molecule, in series [2] (preliminary analyses), the “effectiveness among the novel C7 analogs” value is “more effective of the novel C7 analogs”. The “increasing [^3 H] VBL accumulation” value in series [2] (preliminary data) was “highly potent”. Besides, in series [2] (up to), the “potency in increasing [^3 H] VBL accumulation relative to the lead compound (progesterone)” value is reported as “up to 35 fold” and the “potency in increasing [^3 H] VBL accumulation relative to verapamil” value is “up to 7 fold”. Moreover, in the series with sensitive parental cells (PGP-resistant vs sensitive parental cells), the “specificity for PGP” value was “specific for PGP”. For the same molecule, in the series with sensitive parental cells (sensitive control / parental cells), the “activity in sensitive control cell populations” value is “not in sensitive control cell populations”. Moreover, the “fold sensitization to VBL at VBL's IC50” value in the series with MCF-7^ADR cells [3] (1 μM compound 4, MCF-7^ADR) is given as “up to 9 fold”. In addition, the “residual VBL resistance” value with MCF-7^ADR cells [3] (MCF-7^ADR, 1 μM compound 4, from an initial 32-fold) was 3.8 fold. Also, in the series with MCF-7^ADR cells [3] (human), the “potency relative to progesterone in increasing VBL cytotoxicity” value is given as “approximately 23 fold” and the “potency relative to verapamil in increasing VBL cytotoxicity” value is listed as “approximately 6 fold”. Further, in the series on MDA435/LCC6^MDR1 cells (transduced MDA435/LLC6 cells), the “fold sensitization to VBL at VBL's IC50” value was 20 fold. Moreover, the “residual VBL resistance” value in the series with MDA435/LCC6^MDR1 cells (MDA435/LCC6MDR1, from an initial 49-fold) worked out at 2.4 fold. For the same molecule, the “reversing PGP-mediated resistance” value in the series on PGP-resistant cells is given as “highly potent”. The stability in vitro result in series [4] was “stable in vitro”.

These data come from patent US6143737A, “Progesterone analogs to reverse multidrug resistance” (priority 1996, dated 2000).
